Assay [1] deals with Corn (CN). Briefly: Pre-emergence herbicide test. Format: in vivo. As to conditions: Zea mays, 336 h, two weeks after treatment; for pest or weed control at 8966.8 g/ha: 8 lb/acre. On the procedure: (§1) All crop and weed species were planted individually in 3' plastic pots containing potting soil. Four seeds each of corn, cotton, and snapbeans were seeded to a depth equal to the diameter of the seed. All other species were surface seeded and sprinkled with screened soil in an amount sufficient to cover the seed. Immediately after planting, all pots were watered by sub-irrigation in greenhouse trays. Pots for the pre-emergence phase were seeded one day before treatment.
(§2) Compounds were tested at rates of application equivalent to 8 lbs. of actual compound per acre in a spray volume of 38 gallons per acre. Spray hood constants required to deliver the above volume are as follows:
(§3) Formulations for spray applications were prepared in 50 ml volumes with the following three components:
(§4) Formulations for the 4 lbs/acre rate were prepared by adjusting the amount of active ingredient accordingly.
(§5) Spray applications were made in a hood containing a removable belt and fixed spray nozzle. For passage through the spray hood, one pot of each specie (pre-emergence phase) was placed on the rear half of the flat. Treatments were removed to the greenhouse after spraying. Watering during the observation period was done only by sub-irrigation.
(§6) Two weeks after treatment, pre- and post-emergence injury or control was visually rated, and the results were as shown in the following tables. Pre-emergence data are provided in TABLE III and post-emergence data are provided in TABLE IV, for compounds having the formula illustrated in TABLE I. Correspondingly, pre-emergence and post-emergence data, respectively, are set forth in TABLES V AND VI, for compounds having the formula illustrated in TABLE II.

The test system of assay [2] is Cotton (CT). Briefly: Pre-emergence herbicide test. The assay is classed as in vivo, Gossypium hirsutum var. DPL smooth leaf. As to conditions: Gossypium hirsutum, 336 h, two weeks after treatment; for pest or weed control at 8966.8 g/ha: 8 lb/acre. As to the method:
(§7) Cotton (CT)--Gossypium hirsutum var. DPL smooth leaf
as §1, §2, §3, §4, §5, §6

The test system of assay [3] is Barnyard grass (BG). Briefly: Pre-emergence herbicide test. The assay is classed as in vivo. As to conditions: Echinochloa crus-galli, 336 h, two weeks after treatment; for pest or weed control at 8966.8 g/ha: 8 lb/acre. As to the method: (§8) Barnyard grass (BG)--Echinochloa crus-galli
as §1, §2, §3, §4, §5, §6

The subject of assay [4] is Turnip (TP). The experiment in a line: Post-emergence herbicide test. As to conditions: Brassica rapa, post-emergence, 336 h, two weeks after treatment; for pest or weed control at 8966.8 g/ha: 8 lb/acre. Format: in vivo, Brassica sp. On the procedure: (§9) Turnip (TP)--Brassica sp.
as §1
(§10) Planting dates for the post-emergence phase were varied so that all seedlings would reach the desired stage of development simultaneously. The proper stage of seedling development for treatment in the post-emergence phase is as follows:
Pigweed and turnips: 1 or 2 true leaves above visible cotyledons.
(§11) Spray hood constants required to deliver the above volume are as follows:
(§12) Formulations for spray applications were prepared in 50 ml volumes with the following three components: […]
as §5, §6

For assay [5], the system named is Cotton (CT). Briefly: Post-emergence herbicide test. As to conditions: Gossypium hirsutum, post-emergence, 336 h, two weeks after treatment; for pest or weed control at 8966.8 g/ha: 8 lb/acre. Format: in vivo, Gossypium hirsutum var. DPL smooth leaf. As to the method: as §7, §1, §10
Cotton: first true leaf 1' in length; expanded cotyledons.
as §11, §3, §4, §5, §6

In assay [6] the test system is Corn (CN). The experiment in a line: Post-emergence herbicide test. Format: in vivo. As to conditions: Zea mays, 336 h, two weeks after treatment; for pest or weed control at 8966.8 g/ha: 8 lb/acre. As to the method: as §1, §10, §2, §3, §4, §5, §6
For assay [7], the system named is Turnip (TP). Briefly: Pre-emergence herbicide test. As to conditions: Brassica rapa, pre-emergence, 336 h, two weeks after treatment; for pest or weed control at 8966.8 g/ha: 8 lb/acre. The assay is classed as in vivo, Brassica sp. On the procedure:
as §9, §1, §11, §12, §5, §6

In assay [8] the test system is Johnson grass (JG). Briefly: Post-emergence herbicide test. The assay is classed as in vivo, Sorgum helepense. As to conditions: Sorghum halepense, 336 h, two weeks after treatment; for pest or weed control at 8966.8 g/ha: 8 lb/acre. On the procedure: (§13) Johnson grass (JG)--Sorgum helepense
as §1, §10, §2, §3, §4, §5, §6

Assay [9] has as its system Crabgrass (CG). Briefly: Pre-emergence herbicide test. As to conditions: Digitaria sanguinalis, pre-emergence, 336 h, two weeks after treatment; for pest or weed control at 8966.8 g/ha: 8 lb/acre. Format: in vivo, Digitaria sanquinalis. On the procedure:
(§14) Crabgrass (CG)--Digitaria sanquinalis
as §1, §11, §12, §5, §6

Assay [10] deals with Crabgrass (CG). Briefly: Post-emergence herbicide test. The assay is classed as in vivo, Digitaria sanquinalis. As to conditions: Digitaria sanguinalis, post-emergence, 336 h, two weeks after treatment; for pest or weed control at 8966.8 g/ha: 8 lb/acre. As to the method:
as §14, §1, §10, §11, §12, §5, §6

In assay [11] the test system is Bean (BN). The experiment in a line: Pre-emergence herbicide test. As to conditions: Phaseolus vulgaris, 336 h, two weeks after treatment; for pest or weed control at 8966.8 g/ha: 8 lb/acre. Format: in vivo, Phaseolus vulgaris var. Black Valentine. As to the method:
(§15) Bean (BN)--Phaseolus vulgaris var. Black Valentine
as §1, §2, §3, §4, §5, §6

For assay [12], the system named is Barnyard grass (BG). Briefly: Post-emergence herbicide test. As to conditions: Echinochloa crus-galli, 336 h, two weeks after treatment; for pest or weed control at 8966.8 g/ha: 8 lb/acre. Format: in vivo. On the procedure: as §8, §1, §10, §2, §3, §4, §5, §6
In assay [13] the test system is Bean (BN). Briefly: Post-emergence herbicide test. The assay is classed as in vivo, Phaseolus vulgaris var. Black Valentine. As to conditions: Phaseolus vulgaris, post-emergence, 336 h, two weeks after treatment; for pest or weed control at 8966.8 g/ha: 8 lb/acre. As to the method:
as §15, §1, §10
Beans: primary leaves expanded, growing point at primary leaf nodes.
as §11, §3, §4, §5, §6

The test system of assay [14] is Johnson grass (JG). Briefly: Pre-emergence herbicide test. As to conditions: Sorghum halepense, 336 h, two weeks after treatment; for pest or weed control at 8966.8 g/ha: 8 lb/acre. The assay is classed as in vivo, Sorgum helepense. As to the method: as §13, §1, §2, §3, §4, §5, §6

Our source for the pest or weed control values is patent US4175081A, “5-Substituted thiadiazole ureas” (priority 1977, dated 1979).

With `CCCSc1nnc(NC(=O)NC)s1` [Example 41, 1-Methyl-3-[5-n-Propylthio-2-(1,3,4-Thiadiazolyl)]Urea], the pest or weed control – broadly, the degree to which the test organism was suppressed or injured, in per cent – at 2241.7 g/ha in [1] (2 lb/acre) worked out at 10%; in [2] (2 lb/acre) it was 50%; in [3] (2 lb/acre), 50%; in assay [4] (2 lb/acre), 70%; in [5] (2 lb/acre), 100%; in assay [7] (2 lb/acre), 60%. In addition, the pest or weed control at 2241.7 g/ha in assay [11] (2 lb/acre) came to 30%; in assay [12] (2 lb/acre), 90%; in [13] (2 lb/acre), 70%; in assay [14] (2 lb/acre) it was 70%. Besides, the pest or weed control in assay [6] (2 lb/acre) is 100%; in assay [8] (2 lb/acre), 90%; in [9] (2 lb/acre) it was 90%; in [10] (2 lb/acre), 100%.

As for `CCCCCCCCSc1nnc(NC(=O)NC)s1` [Example 78], the pest or weed control at 1120.85 g/ha in assay [1] (1 lb/acre) stood at 0%; in assay [2] (1 lb/acre) it was 30%; in [3] (1 lb/acre) it was 0%; in [4] (1 lb/acre) it was 100%; in [5] (1 lb/acre) it was 80%; in assay [6] (1 lb/acre), 40%. Besides, the pest or weed control at 1120.85 g/ha stood at 0% in assay [7] (1 lb/acre); 30% in [8] (1 lb/acre); 30% in assay [10] (1 lb/acre); 80% in [11] (1 lb/acre); 40% in assay [12] (1 lb/acre); 100% in [13] (1 lb/acre). Further, the pest or weed control at 1120.85 g/ha in [14] (1 lb/acre) is 0%. Also, the pest or weed control in assay [9] (1 lb/acre) came out at 20%.

In the case of `CNC(=O)Nc1nnc(-c2ccc(C)cc2)s1` [Example 76], the pest or weed control at 8966.8 g/ha in [1] came out at 50%; in assay [2] it was 100%; in assay [3] it was 30%; in assay [4] it was 60%; in assay [5] it was 50%; in assay [6] it was 30%. Also, the pest or weed control at 8966.8 g/ha was 40% in assay [7]; 30% in assay [8]; 20% in assay [9]; 40% in [10]; 80% in [11]; 40% in assay [12]. For the same compound, the pest or weed control at 8966.8 g/ha in assay [13] amounted to 50%; in assay [14], 0%.

For the compound `CNC(=O)Nc1nnc(-c2ccc(Cl)cc2Cl)s1` [Example 75], the pest or weed control at 8966.8 g/ha in assay [1] stood at 0%; in assay [2] it was 30%; in [3], 0%; in [4] it was 80%; in assay [5], 50%; in assay [6] it was 30%. Further, the pest or weed control at 8966.8 g/ha amounted to 40% in [7]; 30% in assay [8]; 0% in [9]; 50% in assay [10]; 100% in [11]; 40% in assay [12]. For the same compound, the values for the pest or weed control at 8966.8 g/ha in [13] and in assay [14] were 100% and 0%, respectively.

As to `CNC(=O)Nc1nnc(SC(C)C)s1` [Example 40, 1-Methyl-3-[5-Isopropylthio-2-(1,3,4-Thiadiazolyl)]Urea], the pest or weed control at 4483.4 g/ha in assay [2] (4 lb/acre) is 30%; in assay [3] (4 lb/acre) it was 40%; in assay [4] (4 lb/acre), 100%; in [5] (4 lb/acre), 100%; in [6] (4 lb/acre), 40%; in [7] (4 lb/acre) it was 100%. The pest or weed control at 4483.4 g/ha is 70% in assay [8] (4 lb/acre); 50% in [9] (4 lb/acre); 90% in [10] (4 lb/acre); 10% in assay [11] (4 lb/acre); 50% in [12] (4 lb/acre); 100% in assay [13] (4 lb/acre). This compound registered a pest or weed control at 4483.4 g/ha in assay [14] (4 lb/acre) of 30%.

For `CNC(=O)Nc1nnc(-c2ccccc2Cl)s1` [Example 74], the pest or weed control at 8966.8 g/ha in assay [1] was 0%; in assay [2], 100%; in [3], 30%; in assay [4], 80%; in assay [5], 50%; in assay [6], 40%. In addition, the pest or weed control at 8966.8 g/ha turned out to be 50% in assay [7]; 40% in [8]; 20% in assay [9]; 70% in [10]; 100% in assay [11]; 40% in [12]. Also, the pest or weed control at 8966.8 g/ha in [13] is 80%; in [14], 0%.
